In ChEMBL document CHEMBL1145229, “Identified a morpholinyl-4-piperidinylacetic acid derivative as a potent oral active VLA-4 antagonist” (Bioorg Med Chem Lett, 2005):

Tests used:
[1] = in vivo; details: Sprague-Dawley, rat, po, 1.2 mg/kg
Description: Percent bioavailability in sprague-dawley rat at a dosage(inta venous 1.2 mg/kg, oral 5 mg/kg )

[2] = in vivo; details: rat
Description: Half life in lambda2 phase in rat

[3] = in vivo; details: Sprague-Dawley, rat, iv, 1.2 mg/kg
Description: Clearance in sprague dawley rat at 1.2 mg/kg intra venous dosage

[4] = in vivo; details: rat; remark: listed apart in the source
Description: Half life in lambda1 phase in rat

Structure (SMILES) | bioavailability [1] | half-life [2] | clearance [3] | half-life [4]
Cc1ccccc1NC(=O)Nc1ccc(CC(=O)N2CCCC2C(=O)NCCCCC(=O)O)cc1 (stereo not drawn) | < 1% | 9.1 min | 75.1 mL/min/kg | 2.8 min
Cc1ccccc1NC(=O)Nc1ccc(CC(=O)N2CCCC2C(=O)N2CCC(CC(=O)O)CC2)cc1 (stereo not drawn) | < 1% | 20.2 min | 41.3 mL/min/kg | 5.8 min
